Assay results from patent publication US20240350643A1, “PROTEIN DEGRADATION AGENT” (SUZHOU KINTOR PHARMACEUTICALS, INC., priority 2021, published 2024).

Key:
HL60 cells = assay: Anti-proliferation ability of compounds on HL60 cells (CTG); assay type: cell-based, human; details: Homo sapiens, HL-60, 72 h, 3 days, CellTiter-Glo, read-out: HL60 cells Proliferation inhibitory activity
Outline: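 Proliferation inhibition IC50 derived from CellTiter-Glo luminescence after 3-day compound treatment of HL60 cells plated at 20000 per well, against 0.1% DMSO controls.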

c-Myc protein = biological target: T1, c-Myc protein (Homo sapiens, UniProt P01106); assay: Ability of compounds to degrade c-Myc protein in HL60 cells (ELISA); assay type: cell-based; details: HL-60, 1 μM compound, 24 h, read-out: HL60 cells Protein degradation rate (1 μM)
T1 construct: endogenous in cells; host or cells: HL60 cells
T1 sequence (P01106 whole entry): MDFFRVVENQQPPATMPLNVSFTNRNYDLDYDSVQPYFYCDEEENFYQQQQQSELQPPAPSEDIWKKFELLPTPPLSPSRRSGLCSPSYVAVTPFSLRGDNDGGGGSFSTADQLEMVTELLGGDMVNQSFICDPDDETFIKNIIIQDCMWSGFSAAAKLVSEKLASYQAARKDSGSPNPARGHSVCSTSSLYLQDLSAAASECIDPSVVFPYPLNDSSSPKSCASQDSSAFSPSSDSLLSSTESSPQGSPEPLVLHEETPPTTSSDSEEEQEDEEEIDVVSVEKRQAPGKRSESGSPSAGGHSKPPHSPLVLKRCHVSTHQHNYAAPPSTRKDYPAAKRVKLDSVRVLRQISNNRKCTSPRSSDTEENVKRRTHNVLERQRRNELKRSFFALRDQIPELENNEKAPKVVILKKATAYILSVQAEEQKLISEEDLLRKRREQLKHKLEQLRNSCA

IC50 (HL60 cells) [µM]	inhibition at 1 µM (c-Myc protein) [%]	SMILES
0.0044 ± 0.0032	60 to 90	COc1cc(CN(C)CCc2cccc3ccccc23)ccc1CNC(=O)c1ccc2c(c1)C(=O)N(C1CCC(=O)NC1=O)C2=O (stereo not shown) [A113]
0.0065 ± 0.0003	60 to 90	COc1cc(CN(C)CCn2c3ccccc3c3cccnc32)ccc1CNC(=O)c1ccc2c(c1)C(=O)N(C1CCC(=O)NC1=O)C2=O (stereo not shown) [A114]
0.0086 ± 0.0018	60 to 90	COc1cc(CNC(=O)c2ccc3c(c2)C(=O)N(C2CCC(=O)NC2=O)C3=O)ccc1CNC(=O)Cc1cccc2ccccc12 (stereo not shown) [A115]
0.0055 ± 0.0033	60 to 90	COc1cc(CNC(=O)c2ccc3c(c2)C(=O)N(C2CCC(=O)NC2=O)C3=O)ccc1CNC(=O)Cn1c2ccccc2c2cccnc21 (stereo not shown) [A116]
0.0138 ± 0.004	60 to 90	O=C(Cc1cccc2ccccc12)NCc1ccc(CNC(=O)c2ccc3c(c2)C(=O)N(C2CCC(=O)NC2=O)C3=O)c(C(F)(F)F)c1 (stereo not shown) [A117]
0.0182 ± 0.0114	60 to 90	O=C(Cn1c2ccccc2c2cccnc21)NCc1ccc(CNC(=O)c2ccc3c(c2)C(=O)N(C2CCC(=O)NC2=O)C3=O)c(C(F)(F)F)c1 (stereo not shown) [A118]
0.0444 ± 0.0003	60 to 90	CN(CCc1cccc2ccccc12)Cc1ccc(CNC(=O)c2ccc3c(c2)C(=O)N(C2CCC(=O)NC2=O)C3=O)c(C(F)(F)F)c1 (stereo not shown) [A119]
0.0178 ± 0.0049	60 to 90	CN(CCn1c2ccccc2c2cccnc21)Cc1ccc(CNC(=O)c2ccc3c(c2)C(=O)N(C2CCC(=O)NC2=O)C3=O)c(C(F)(F)F)c1 (stereo not shown) [A120]
0.0063 ± 0.003	60 to 90	O=C(Cc1cccc2ccccc12)NCc1ccc(CNC(=O)c2ccc3c(c2)C(=O)N(C2CCC(=O)NC2=O)C3=O)cc1C(F)(F)F (stereo not shown) [A121]
0.0059 ± 0.0039	60 to 90	O=C(Cn1c2ccccc2c2cccnc21)NCc1ccc(CNC(=O)c2ccc3c(c2)C(=O)N(C2CCC(=O)NC2=O)C3=O)cc1C(F)(F)F (stereo not shown) [A122]
0.0352 ± 0.0093	60 to 90	CN(CCn1c2ccccc2c2cccnc21)Cc1ccc(CNC(=O)c2ccc3c(c2)C(=O)N(C2CCC(=O)NC2=O)C3=O)cc1C(F)(F)F (stereo not shown) [A123]
1.1 ± 0.295	10 to 30	O=C(Cc1cccc2ccccc12)NCc1ccc(CNC(=O)c2ccc3c(c2)C(=O)N(C2CCC(=O)NC2=O)C3=O)nc1 (stereo not shown) [A124]
0.0261 ± 0.002	60 to 90	O=C(Cn1c2ccccc2c2cccnc21)NCc1ccc(CNC(=O)c2ccc3c(c2)C(=O)N(C2CCC(=O)NC2=O)C3=O)nc1 (stereo not shown) [A125]
0.0085 ± 0.0004	60 to 90	CN(CCc1cccc2ccccc12)Cc1ccc(CNC(=O)c2ccc3c(c2)C(=O)N(C2CCC(=O)NC2=O)C3=O)nc1 (stereo not shown) [A126]
0.0036 ± 0.0001	60 to 90	CN(CCn1c2ccccc2c2cccnc21)Cc1ccc(CNC(=O)c2ccc3c(c2)C(=O)N(C2CCC(=O)NC2=O)C3=O)nc1 (stereo not shown) [A127]
2.14 ± 0.788	10 to 30	O=C(Cc1cccc2ccccc12)NCc1ccc(CNC(=O)c2ccc3c(c2)C(=O)N(C2CCC(=O)NC2=O)C3=O)cn1 (stereo not shown) [A128]
0.0361 ± 0.0133	60 to 90	O=C(Cn1c2ccccc2c2cccnc21)NCc1ccc(CNC(=O)c2ccc3c(c2)C(=O)N(C2CCC(=O)NC2=O)C3=O)cn1 (stereo not shown) [A129]
0.0047 ± 0.0023	60 to 90	CN(CCn1c2ccccc2c2cccnc21)Cc1ccc(CNC(=O)c2ccc3c(c2)C(=O)N(C2CCC(=O)NC2=O)C3=O)cn1 (stereo not shown) [A130]
0.112 ± 0.0165	60 to 90	O=C(Cn1c2ccccc2c2cccnc21)NCc1cnc(CNC(=O)c2ccc3c(c2)C(=O)N(C2CCC(=O)NC2=O)C3=O)nc1 (stereo not shown) [A131]
4.21 ± 0.659	10 to 30	O=C(Cn1c2ccccc2c2cccnc21)NCc1ncc(CNC(=O)c2ccc3c(c2)C(=O)N(C2CCC(=O)NC2=O)C3=O)cn1 (stereo not shown) [A132]
5.02 ± 0.023	10 to 30	O=C(Cc1cccc2ccccc12)NCc1cnc(CNC(=O)c2ccc3c(c2)C(=O)N(C2CCC(=O)NC2=O)C3=O)s1 (stereo not shown) [A133]
0.334 ± 0.0835	60 to 90	O=C(Cn1c2ccccc2c2cccnc21)NCc1cnc(CNC(=O)c2ccc3c(c2)C(=O)N(C2CCC(=O)NC2=O)C3=O)s1 (stereo not shown) [A134]
1.71 ± 0.12	30 to 60	O=C(Cc1cccc2ccccc12)NCc1csc(CNC(=O)c2ccc3c(c2)C(=O)N(C2CCC(=O)NC2=O)C3=O)n1 (stereo not shown) [A135]
0.211 ± 0.0459	60 to 90	O=C(Cn1c2ccccc2c2cccnc21)NCc1csc(CNC(=O)c2ccc3c(c2)C(=O)N(C2CCC(=O)NC2=O)C3=O)n1 (stereo not shown) [A136]
0.239 ± 0.035	60 to 90	O=C(Cc1cccc2ccccc12)NCc1ccc(C2(NC(=O)c3ccc4c(c3)C(=O)N(C3CCC(=O)NC3=O)C4=O)CC2)cc1 (stereo not shown) [A137]
0.0124 ± 0.0044	60 to 90	O=C(Cn1c2ccccc2c2cccnc21)NCc1ccc(C2(NC(=O)c3ccc4c(c3)C(=O)N(C3CCC(=O)NC3=O)C4=O)CC2)cc1 (stereo not shown) [A138]

Second part, the compound before the results:

SMILES	IC50 (HL60 cells) [µM]	inhibition at 1 µM (c-Myc protein) [%]
CC(C)N(CCc1cccc2ccccc12)Cc1ccc(CNC(=O)c2ccc3c(c2)C(=O)N(C2CCC(=O)NC2=O)C3=O)cc1 (stereo not shown) [A85]	0.0213 ± 0.0109	60 to 90
CC(C)N(CCn1c2ccccc2c2cccnc21)Cc1ccc(CNC(=O)c2ccc3c(c2)C(=O)N(C2CCC(=O)NC2=O)C3=O)cc1 (stereo not shown) [A86]	0.0244 ± 0.0104	60 to 90
CC(C)N(CCc1cccc(Cl)c1Cl)Cc1ccc(CNC(=O)c2ccc3c(c2)C(=O)N(C2CCC(=O)NC2=O)C3=O)cc1 (stereo not shown) [A87]	0.0115	60 to 90
O=C1CCC(N2C(=O)c3ccc(C(=O)NCc4ccc(CN(CCc5cccc6ccccc56)C5CC5)cc4)cc3C2=O)C(=O)N1 (stereo not shown) [A88]	0.0831	60 to 90
O=C1CCC(N2C(=O)c3ccc(C(=O)NCc4ccc(CN(CCn5c6ccccc6c6cccnc65)C5CC5)cc4)cc3C2=O)C(=O)N1 (stereo not shown) [A89]	0.0811 ± 0.0369	60 to 90
COCCN(CCc1cccc2ccccc12)Cc1ccc(CNC(=O)c2ccc3c(c2)C(=O)N(C2CCC(=O)NC2=O)C3=O)cc1 (stereo not shown) [A90]	< 0.003	60 to 90
COCCN(CCn1c2ccccc2c2cccnc21)Cc1ccc(CNC(=O)c2ccc3c(c2)C(=O)N(C2CCC(=O)NC2=O)C3=O)cc1 (stereo not shown) [A91]	0.012 ± 0.0044	60 to 90
N#CCCN(CCc1cccc2ccccc12)Cc1ccc(CNC(=O)c2ccc3c(c2)C(=O)N(C2CCC(=O)NC2=O)C3=O)cc1 (stereo not shown) [A92]	0.44 ± 0.12	60 to 90
N#CCCN(CCn1c2ccccc2c2cccnc21)Cc1ccc(CNC(=O)c2ccc3c(c2)C(=O)N(C2CCC(=O)NC2=O)C3=O)cc1 (stereo not shown) [A93]	0.171 ± 0.0604	60 to 90
O=C1CCC(N2C(=O)c3ccc(C(=O)NCc4ccc(CN(CCc5cccc6ccccc56)c5ccccc5)cc4)cc3C2=O)C(=O)N1 (stereo not shown) [A94]	0.289 ± 0.0483	60 to 90
O=C1CCC(N2C(=O)c3ccc(C(=O)NCc4ccc(CN(CCn5c6ccccc6c6cccnc65)c5ccccc5)cc4)cc3C2=O)C(=O)N1 (stereo not shown) [A95]	0.0436 ± 0.044	60 to 90
O=C1CCC(N2C(=O)c3ccc(C(=O)NCc4ccc(CN(CCc5cccc6ccccc56)Cc5ccccc5)cc4)cc3C2=O)C(=O)N1 (stereo not shown) [A96]	0.96 ± 0.121	60 to 90
O=C1CCC(N2C(=O)c3ccc(C(=O)NCc4ccc(CN(CCn5c6ccccc6c6cccnc65)Cc5ccccc5)cc4)cc3C2=O)C(=O)N1 (stereo not shown) [A97]	0.169 ± 0.0507	60 to 90
CN(CCc1nccc2ccccc12)Cc1ccc(CNC(=O)c2ccc3c(c2)C(=O)N(C2CCC(=O)NC2=O)C3=O)cc1 (stereo not shown) [A98]	0.0112 ± 0.0013	60 to 90
CN(CCc1cccc(Cl)c1Cl)Cc1ccc(CNC(=O)c2ccc3c(c2)C(=O)N(C2CCC(=O)NC2=O)C3=O)cc1 (stereo not shown) [A99]	0.0198 ± 0.0048	60 to 90
CN(CCc1ccc(Cl)cc1Cl)Cc1ccc(CNC(=O)c2ccc3c(c2)C(=O)N(C2CCC(=O)NC2=O)C3=O)cc1 (stereo not shown) [A100]	0.0009	60 to 90
CN(CCc1ccc(Cl)c(Cl)c1)Cc1ccc(CNC(=O)c2ccc3c(c2)C(=O)N(C2CCC(=O)NC2=O)C3=O)cc1 (stereo not shown) [A101]	0.0004	60 to 90
O=C(Cc1cccc2ccccc12)NCc1ccc(CNC(=O)c2ccc3c(c2)C(=O)N(C2CCC(=O)NC2=O)C3=O)c(F)c1 (stereo not shown) [A103]	0.0058 ± 0.0025	60 to 90
O=C(Cn1c2ccccc2c2cccnc21)NCc1ccc(CNC(=O)c2ccc3c(c2)C(=O)N(C2CCC(=O)NC2=O)C3=O)c(F)c1 (stereo not shown) [A104]	0.0025 ± 0.0007	60 to 90
CN(CCc1cccc2ccccc12)Cc1ccc(CNC(=O)c2ccc3c(c2)C(=O)N(C2CCC(=O)NC2=O)C3=O)c(F)c1 (stereo not shown) [A105]	0.0083 ± 0.0019	60 to 90
CN(CCn1c2ccccc2c2cccnc21)Cc1ccc(CNC(=O)c2ccc3c(c2)C(=O)N(C2CCC(=O)NC2=O)C3=O)c(F)c1 (stereo not shown) [A106]	0.0042	60 to 90
O=C(Cc1cccc2ccccc12)NCc1ccc(CNC(=O)c2ccc3c(c2)C(=O)N(C2CCC(=O)NC2=O)C3=O)cc1F (stereo not shown) [A107]	0.0034	60 to 90
O=C(Cn1c2ccccc2c2cccnc21)NCc1ccc(CNC(=O)c2ccc3c(c2)C(=O)N(C2CCC(=O)NC2=O)C3=O)cc1F (stereo not shown) [A108]	0.0027 ± 0.0018	60 to 90
CN(CCc1cccc2ccccc12)Cc1ccc(CNC(=O)c2ccc3c(c2)C(=O)N(C2CCC(=O)NC2=O)C3=O)cc1F (stereo not shown) [A109]	0.0055 ± 0.0042	60 to 90
CN(CCn1c2ccccc2c2cccnc21)Cc1ccc(CNC(=O)c2ccc3c(c2)C(=O)N(C2CCC(=O)NC2=O)C3=O)cc1F (stereo not shown) [A110]	0.0044	60 to 90
COc1cc(CNC(=O)Cc2cccc3ccccc23)ccc1CNC(=O)c1ccc2c(c1)C(=O)N(C1CCC(=O)NC1=O)C2=O (stereo not shown) [A111]	0.0576 ± 0.0259	60 to 90
COc1cc(CNC(=O)Cn2c3ccccc3c3cccnc32)ccc1CNC(=O)c1ccc2c(c1)C(=O)N(C1CCC(=O)NC1=O)C2=O (stereo not shown) [A112]	0.003 ± 0.0001	60 to 90
